Several values for one entry are separate records, joined by “and”; a condition that tells them apart may be missing. Equal entries are not always repeated.
Test system: OVCAR-5 complex spheroids with HUVEC/MSC, viability, % test/control
Assay: Anticancer human tumor OVCAR-5 cell line growth inhibition [AhR];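 also: spheroids exposed to compounds for 7 days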;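 as to viability, T/C: 100% = DMSO vehicle control wells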
Settings: for viability, T/C: stronger effect = lower value; for IC50: curve of compound; active = viability on the fitted dose curve at most 10% of control; inactive = the rest
From the text: Multicellular complex tumor spheroid response to aryl hydrocarbon receptor antagonists in combination with a variety of drugs and investigational agents in selected tumor cell lines
The current study was undertaken to assess response to aryl hydrocarbon receptor antagonists in combination with standard-of-care drugs and investigational agents in solid tumor complex spheroid models. Complex spheroids include a stromal component modeled by human endothelial cells (HUVEC) and fibroblasts modeled by human mesenchymal stem cells (MSCs). The concentration ranges selected for each drug and investigational agent were based upon clinically achievable concentrations if the clinical Cmax of the agent was known.
Compounds. The drugs and investigational agents: BAY 2416964 (NSC825713), GNF351 (NSC835774), CH-223191 (NSC835775), CPI-455 (NSC825282), aza-TdCyd (NSC777586), decitabine (NSC127716), belinostat (NSC758774), entinostat (NSC756642), pevonedistat (NSC761192), tazemetostat (NSC777109), talazoparib (NSC765396), olaparib (NSC753686), selinexor (NSC780203), nedisertib (M3814, NSC802822), bortezomib (NSC756655), venetoclax (NSC766270), doxorubicin (NSC123127), elimusertib (BAY189344, NSC800525), ceralasertib (AZD6738, NSC777638), TAK-243 (NSC785004), alisertib (NSC759677), etoposide (NSC141540), topotecan (NSC609699), eribulin (NSC707389), gemcitabine (NSC613327), carboplatin (NSC241240), cisplatin (NSC119875), and SN-38 (NSC673596) were obtained from the National Cancer Institute (NCI) Developmental Therapeutics Program Chemical Repository (32). The FDA-approved anticancer drug set is available from the Developmental Therapeutics Program at https://dtp.cancer.gov/organization/dscb/obtaining/available plates.htm. […] The stock solutions were prepared in dimethyl sulfoxide (DMSO, Sigma-Aldrich, St. Louis, MO, cat. D2650), except for the platinum compounds which were prepared in saline (Quality Biological, Gaithersburg, MD, cat. 114-055-101), at 800-fold the tested concentration and stored at -70 degrees C prior to their use. All drugs and investigational agents were tested over a range starting from a high concentration at or near the clinical Cmax and decreasing in half-log increments. If the clinical Cmax for an agent had not been determined, the highest concentration tested was 10 microM (Table 1).
Cell Culture. All cells were maintained in an incubator at 37 degrees C and 5% CO2 with 95% humidity. The PDC lines were cultured according to standard operating procedures established by the NCI PDMR (https://pdmr.cancer.gov). Briefly, all PDCs were thawed and cultured in Matrigel-coated flasks prepared with a working solution of 1X Ham's F-12 nutrient mix, without supplementation (Invitrogen, Waltham, MA, cat. 11765054), 100 U/mL penicillin-streptomycin (Invitrogen, cat. 15140122), and 2.5% Matrigel (Corning Inc., Corning, NY, cat. 354248) for the first three passages. All PDCs were cultured in complete DMEM/F-12 media containing advanced DMEM/F-12 (Invitrogen, cat. 12634028), 4.9% defined fetal bovine serum, heat inactivated (HyClone Laboratories Inc., Logan, UT, cat. SH30070.03HI), 389 ng/mL hydrocortisone (Sigma-Aldrich, cat. H4001), 9.7 ng/mL human EGF recombinant protein (Invitrogen, cat. PHG0313), 23.4 microg/mL adenine (Sigma-Aldrich, cat. A2786), 97.3 U/mL penicillin-streptomycin (Invitrogen, cat. 15140122), 1.9 mM L-glutamine (Invitrogen, cat. 25030081), and 9.7 microM Y-27632 dihydrochloride (Tocris Bioscience, Bristol, United Kingdom, cat. 1254). The PDCs were cultured in complete DMEM/F12 media without 10 microM Y-27632 dihydrochloride for at least two passages prior to the screen. The established cell lines NCI-H1341 and […] were cultured in DMEM/F-12, HEPES (Invitrogen, cat. 11330032), 5% defined fetal bovine serum (HyClone Laboratories Inc., cat. SH30070.03), ITS premix universal culture supplement [insulin (5 microg/mL), transferrin (5 microg/mL), and selenious acid (5 ng/mL)] […]

CC(C)CC(NC(=O)C(Cc1ccccc1)NC(=O)c1cnccn1)B(O)O (stereo not given)
64.9 nM and 51 nM and 23.1 nM: IC50
inactive: viability, T/C (compound 0.000949 µM) 99.2% and 101% and 95.8% | viability, T/C (compound 0.003 µM) 99.8% and 102% and 100% | viability, T/C (compound 0.00949 µM) 100% and 96.3% and 85.5% | viability, T/C (compound 0.03 µM) 78.9% and 69.3% and 39% | viability, T/C (compound 0.0949 µM) 36% and 27.6% and 18% | viability, T/C (compound 0.3 µM) 24.7% and 18.1% and 11.4%

CC1COCCN1c1cc(-c2ccnn2C)c2ccnc(-c3ccn[nH]3)c2n1 (stereo not given)
inactive: viability, T/C (compound 0.00316 µM) 105% and 103% and 102% | viability, T/C (compound 0.01 µM) 103% and 101% and 105% | viability, T/C (compound 0.0316 µM) 102% and 95.4% and 103% | viability, T/C (compound 0.1 µM) 84.8% and 79.3% and 79.7% | viability, T/C (compound 0.316 µM) 47.3% and 38.3% and 41.1% | viability, T/C (compound 1 µM) 30.7% and 25.6% and 26.6%
290 nM and 229 nM and 240 nM: IC50

CCN(c1cc(-c2ccc(CN3CCOCC3)cc2)cc(C(=O)NCc2c(C)cc(C)[nH]c2=O)c1C)C1CCOCC1
> 3000 nM: IC50
inactive: viability, T/C (compound 0.00949 µM) 104% (2×) and 101% | viability, T/C (compound 0.03 µM) 105% and 98.5% and 106% | viability, T/C (compound 0.0949 µM) 99.6% and 99.7% and 103% | viability, T/C (compound 0.3 µM) 101% and 100% and 105% | viability, T/C (compound 0.949 µM) 99.6% and 96.8% and 104% | viability, T/C (compound 3 µM) 101% and 96.4% and 104%

CC[C@@]1(O)C(=O)OCc2c1cc1n(c2=O)Cc2cc3c(CN(C)C)c(O)ccc3nc2-1
inactive: viability, T/C (compound 0.000316 µM) 102% and 99.2% and 104% | viability, T/C (compound 0.001 µM) 101% and 98.1% and 106% | viability, T/C (compound 0.00316 µM) 97.5% and 89.9% and 98.5% | viability, T/C (compound 0.01 µM) 88% and 79.8% and 89.2% | viability, T/C (compound 0.0316 µM) 57% and 37.1% and 61.3% | viability, T/C (compound 0.1 µM) 50.6% and 40.1% and 46.5%
> 100 nM and 23 nM and 75.9 nM: IC50

CCc1c2c(nc3ccc(O)cc13)-c1cc3c(c(=O)n1C2)COC(=O)[C@]3(O)CC
inactive: viability, T/C (compound 0.000949 µM) 90.5% and 88.5% and 79.2% | viability, T/C (compound 0.003 µM) 69% and 69.4% and 60.1% | viability, T/C (compound 0.00949 µM) 46% and 36.1% and 40.2% | viability, T/C (compound 0.03 µM) 45.3% and 36.5% and 41.5% | viability, T/C (compound 0.0949 µM) 28.9% and 21.7% and 21.8% | viability, T/C (compound 0.3 µM) 12.1% and 8% and 9.04%
13 nM and 7.38 nM and 7.51 nM: IC50

COc1cc(C2c3cc4c(cc3C(OC3OC5COC(C)OC5C(O)C3O)C3COC(=O)C23)OCO4)cc(OC)c1O (stereo not given)
3120 nM and 3790 nM and 2030 nM: IC50
inactive: viability, T/C (compound 0.0316 µM) 96.3% and 99.9% and 103% | viability, T/C (compound 0.1 µM) 98.8% and 99.4% and 103% | viability, T/C (compound 0.316 µM) 90.1% and 91.7% and 91.1% | viability, T/C (compound 1 µM) 73.2% and 79.8% and 64.9% | viability, T/C (compound 3.16 µM) 50% and 52.3% and 41.3% | viability, T/C (compound 10 µM) 37.2% and 34.4% and 30.3%

COc1cccc2c1C(=O)c1c(O)c3c(c(O)c1C2=O)CC(O)(C(=O)CO)CC3OC1CC(N)C(O)C(C)O1 (stereo not given)
active: viability, T/C (compound 3.16 µM) 1.66% and 1.72% and 3.06% | viability, T/C (compound 10 µM) 1.46% and 1.1% and 1.11%
316 nM and 114 nM and 223 nM: IC50
inactive: viability, T/C (compound 0.0316 µM) 66.2% and 56.6% and 74% | viability, T/C (compound 0.1 µM) 55.2% and 47.4% and 58.4% | viability, T/C (compound 0.316 µM) 49.6% and 41.8% and 46.6% | viability, T/C (compound 1 µM) 28.7% and 24.1% and 25.6%

Cn1ncnc1C1c2n[nH]c(=O)c3cc(F)cc(c23)NC1c1ccc(F)cc1 (stereo not given)
inactive: viability, T/C (compound 0.000316 µM) 104% and 100% and 102% | viability, T/C (compound 0.001 µM) 101% and 99% and 103% | viability, T/C (compound 0.00316 µM) 105% and 94.4% and 102% | viability, T/C (compound 0.01 µM) 98.9% and 92.5% and 97.6% | viability, T/C (compound 0.0316 µM) 101% and 92.3% and 97.3% | viability, T/C (compound 0.1 µM) 95.8% and 88% and 91.3%
> 100 nM: IC50

Nc1ccccc1NC(=O)c1ccc(CNC(=O)OCc2cccnc2)cc1
1080 nM and 1050 nM and 580 nM: IC50
inactive: viability, T/C (compound 0.0316 µM) 92.2% and 93.7% and 84.8% | viability, T/C (compound 0.1 µM) 90.3% and 88.7% and 81.2% | viability, T/C (compound 0.316 µM) 75.1% and 77.2% and 67.5% | viability, T/C (compound 1 µM) 53.3% and 52.3% and 33.1% | viability, T/C (compound 3.16 µM) 23.5% and 21.1% and 19.9%
9.94% and 8.4% and 7.9%: viability, T/C (compound 10 µM)

Nc1ccn(C2OC(CO)C(O)C2(F)F)c(=O)n1 (stereo not given)
inactive: viability, T/C (compound 0.0316 µM) 32.6% and 27.9% and 33.8% | viability, T/C (compound 0.1 µM) 30.9% and 25.9% and 30.5% | viability, T/C (compound 0.316 µM) 31.4% and 27.5% and 30.8% | viability, T/C (compound 1 µM) 31.7% and 27.9% and 31.9% | viability, T/C (compound 3.16 µM) 32.3% and 29.7% and 33.2% | viability, T/C (compound 10 µM) 31.7% and 27.8% and 29.7%
< 31.6 nM: IC50

Nc1ncn(C2CC(O)C(CO)O2)c(=O)n1 (stereo not given)
inactive: viability, T/C (compound 0.00316 µM) 101% and 99.1% and 104% | viability, T/C (compound 0.01 µM) 97.8% and 103% and 98.1% | viability, T/C (compound 0.0316 µM) 94% and 94.8% and 88.5% | viability, T/C (compound 0.1 µM) 82.6% and 82.3% and 82% | viability, T/C (compound 0.316 µM) 76% and 70.8% and 68.8% | viability, T/C (compound 1 µM) 65% and 59.9% and 63.7%
> 1000 nM: IC50

Nc1ncn(C2CC(O)C(CO)S2)c(=O)n1 (stereo not given)
inactive: viability, T/C (compound 0.000949 µM) 103% and 101% and 99.6% | viability, T/C (compound 0.003 µM) 96.8% and 106% and 99.3% | viability, T/C (compound 0.00949 µM) 102% and 103% and 97.4% | viability, T/C (compound 0.03 µM) 99.8% and 99.5% and 105% | viability, T/C (compound 0.0949 µM) 91.7% and 90.7% and 99% | viability, T/C (compound 0.3 µM) 83.8% and 77.6% and 83.7%
> 300 nM: IC50

O=C(C=Cc1cccc(S(=O)(=O)Nc2ccccc2)c1)NO
active: viability, T/C (compound 10 µM) 7.78% and 5.16% and 5.95%
1410 nM and 1120 nM and 1110 nM: IC50
inactive: viability, T/C (compound 0.0316 µM) 94.1% and 97.8% and 90.4% | viability, T/C (compound 0.1 µM) 93.2% and 88% and 88.8% | viability, T/C (compound 0.316 µM) 76.5% and 73.4% and 70.6% | viability, T/C (compound 1 µM) 59.4% and 55.6% and 52.8% | viability, T/C (compound 3.16 µM) 30.6% and 24.4% and 27.7%

O=C(C=Cn1cnc(-c2cc(C(F)(F)F)cc(C(F)(F)F)c2)n1)NNc1cnccn1
2560 nM and 1610 nM and 1710 nM: IC50
inactive: viability, T/C (compound 0.00949 µM) 109% and 108% and 104% | viability, T/C (compound 0.03 µM) 108% and 109% and 105% | viability, T/C (compound 0.0949 µM) 101% and 99.5% and 96.1% | viability, T/C (compound 0.3 µM) 85.9% and 76.1% and 78.1% | viability, T/C (compound 0.949 µM) 68.2% and 58.4% and 60.8% | viability, T/C (compound 3 µM) 47% and 42% and 40.6%

O=C(c1cc(Cc2n[nH]c(=O)c3ccccc23)ccc1F)N1CCN(C(=O)C2CC2)CC1
> 10000 nM: IC50
inactive: viability, T/C (compound 0.0316 µM) 98.3% and 103% and 100% | viability, T/C (compound 0.1 µM) 97.6% and 99% and 96.8% | viability, T/C (compound 0.316 µM) 92.4% and 97.2% and 96.1% | viability, T/C (compound 1 µM) 93% and 93.2% and 98.6% | viability, T/C (compound 3.16 µM) 90.9% and 91% and 92.9% | viability, T/C (compound 10 µM) 83.3% and 83.5% and 84.2%
